In patent US20140018558A1, “DOCOSAHEXAENOIC ACID (DHA) AS POLYUNSATURATED FREE FATTY ACID IN ITS DIRECTLY COMPRESSIBLE POWDER FORM AND METHOD OF ISOLATION THEREOF” (priority 2011, published 2014):

Assays:
[1] = Solubility of the isolated DHA powder (physical characterisation); assay type: physicochemical; details: solvent chloroform; isolated DHA free fatty acid powder
Description: Take 1 liter of fish oil. Maintain temperature to 40-45° C. To it add 1-2% methanolic/ethanolic/propanolic/butanolic sodium or potassium hydroxide 1 liter. Stir for ½ an hour. It separates two layers, discard upper layer which contains lower fatty acids and other impurities. Then, to the lower layer add 750 ml of acetone or ethyl or methyl ketone and stir for one hr and keep aside for ½ hour to precipitate DHA. Filter it and wash 2-3 times with equal quantity of acetone. Evaporate and recover the solvent with temperature not exceeding 40 degree C. This leads to drying of the precipitated DHA at room temperature to form the crystalline mass. The same is passed through the sieve to obtain a dry, directly compressible, free flowing powder of polyunsaturated free fatty acid DHA thereof. The DHA is creamish or off-white crystalline solid powder having melting point 60-62 degree C.
Cool fish oil 12 degree C. to solidify all fatty acids in waxy form and separate it from fish oil. Maintain temperature to 40-45° C. In 1 kg waxy fatty acid, add 1 litre ethanolic or methanolic or propanolic or butanolic sodium or potassium hydroxide 1-2% and stir it for ½ an hour. The solution separates the oily layer which contains lower fatty acids and other impurities then, add ethyl acetate:acetone 90:10 to 10:90 to above solvent. It precipitates DHA in solid form. […]

[2] = Stability of DHA powder at room temperature; assay type: physicochemical; details: powder form, no antioxidants added

For `CC/C=C\C/C=C\C/C=C\C/C=C\C/C=C\C/C=C\CCC(=O)O` [DHA, Docosahexaenoic acid], the Solubility [1] was “freely soluble in chloroform” and the Stability [2] was “stable at room temperature”.
